Results on 1 compound are retold here after PMC6801585, “Improved In Vivo Anti-Tumor and Anti-Metastatic Effect of GnRH-III-Daunorubicin Analogs on Colorectal and Breast Carcinoma Bearing Mice” (International Journal of Molecular Sciences, 2019).

Molecules are shown by their SMILES. Values joined by “and” are separate entries in the source; they are usually repeats but may differ in a detail not shown here. Equal values may be shown once.

Data set [1] has as its system PE/CA-PJ15. Briefly: In vitro anti-proliferative activity (MTT assay). The data set is classed as cell-based. The settings on record: PE/CA-PJ15 (head and neck), 24 h treatment + 48 h culture, average ± SD. The procedure:
(§1) In experimental procedures following cell lines were used, MDA-MB-231 and MCF-7 (human breast cancer), 4T1 (mice breast cancer), DU145 and PC-3 (human prostate cancer), A2780, OVCAR-3 and OVCAR-8 (human ovarian cancer), HepG2 (human liver cancer), A2058, WM983b, HT168-M1/9 and M24 (human melanoma), B16 (mice melanoma), H1975, H1650 and A549 (human lung cancer), HT-29 (human colorectal adenocarcinoma), C26 (mice colon cancer) and PANC-1 (pancreatic cancer) were cultured in RPMI 1640 Medium with glutamine (Roswell Park Memorial Institute Medium, Lonza, Basel, Switzerland). Moreover, U87MG (human malignant glioma) and MRC-5 (normal human fibroblast) were cultured in Dulbecco’s Modified Eagle’s Medium (DMEM, Lonza) and PE/CA-PJ15 and PE/CA-PJ41 (head and neck cancer) were cultured in Iscove’s Modified Dulbecco’s Medium (IMEM, Sigma Aldrich, St. Louis, MO, USA). Apart from the cell culture medium for OVCAR-3 cells, all media were supplemented with 10% heat-inactivated FBS (Fetal Bovine Serum, Euroclone, Milan, Italy) and 1% Penicillin/Streptomycin (Sigma Aldrich), while OVCAR-3 cells were cultured in 20% FBS containing RPMI medium. The cell lines were mainly obtained from ATCC, except for PE/CA-PJ15, PE/CA-PJ41 (ECACC), A2058 (kindly provided by L.A. Liotta, NCI, Bethesda, MD, USA), HT-168-M1/9 (derived from A2058), M24 (kind gift from B.M. Mueller, Scripps Research Institute, La Jolla, CA, USA) and WM983b (kindly provided by Meenhard Herlyn, Wistar Institute, Philadelphia, PA, USA). Cells were cultured in sterile T25 or T75 flasks with ventilation cap (Sarstedt, Nümbrecht, Germany) at 37 °C in a humidified atmosphere with 5% CO2.
(§2) For the evaluation of the in vitro anti-proliferative activity of the GnRH-III conjugates and free Dau, the cell viability was determined by MTT assay (3-(4,5-dimethylthiazol-2-yl)-2,5-diphenyl-tetrazolium bromide) that was obtained from Sigma Aldrich. After standard harvesting of the cells by trypsin-EDTA (Lonza), 4 × 10^3 till 10 × 10^3 cells per well depending on cell line, were seeded in serum containing growth medium to 96-well plates (Sarstedt) and incubated. After 24 h, the growth medium was removed and cells were treated with various concentrations of conjugates 1 and 2 (32 nM–100 µM) or free Dau (0.1 nM–10 µM), dissolved in serum free medium and incubated for 24 h under standard conditions. The control wells were treated with serum free medium. After 24 h of treatment, the cells were washed twice with serum free medium and then cultured in serum containing medium for an additional 48 h. Afterward, the MTT assay was performed, in order to determine cell viability, by adding 20 µL of MTT solution (5 mg/mL in PBS) to each well and after 2 h of incubation at 37 °C, the supernatant was removed. The formazan crystals were dissolved in 100 µL of a 1:1 solution of DMSO (Sigma Aldrich):EtOH (Molar Chemicals Kft., Halásztelek, Hungary) and the absorbance was measured after 15 min. at λ = 570 nm by using a microplate reader (Bio-Rad, model 550, Hercules, CA, USA). The IC50 values of the conjugates and free drug were calculated while using GraphPad Prism 6 (GraphPad Software, San Diego, CA, USA). The experiments were done in triplicate and each experiment was repeated twice.

In data set [2] the test system is PE/CA-PJ41. Kind of data set: In vitro anti-proliferative activity (MTT assay). The data set is classed as cell-based. To be noted: PE/CA-PJ41 (head and neck), 24 h treatment + 48 h culture, average ± SD. The procedure:
as §1, §2

Data set [3] relates to OVCAR-3. Kind of data set: In vitro anti-proliferative activity (MTT assay). The data set is classed as cell-based. The settings on record: Homo sapiens, OVCAR-3 (ovarian), 24 h treatment + 48 h culture, average ± SD. The procedure: as §1, §2
The subject of data set [4] is MRC-5. Briefly: In vitro anti-proliferative activity (MTT assay). To be noted: Homo sapiens, MRC5, MRC-5 (normal fibroblast), 24 h treatment + 48 h culture, average ± SD. The data set is classed as cell-based. The method, then:
as §1, §2

For data set [5], the system named is H1975. Briefly: In vitro anti-proliferative activity (MTT assay). The data set is classed as cell-based. The settings on record: Homo sapiens, NCI-H1975, H1975 (lung), 24 h treatment + 48 h culture, average ± SD. The procedure:
as §1, §2

The subject of data set [6] is HT168-M1/9. Briefly: In vitro anti-proliferative activity (MTT assay). The data set is classed as cell-based. The settings on record: Homo sapiens, HT168-M1/9 (melanoma), 24 h treatment + 48 h culture, average ± SD. The method, then:
as §1, §2

The subject of data set [7] is A2780. Kind of data set: In vitro anti-proliferative activity (MTT assay). It counts as cell-based. To be noted: Homo sapiens, A2780 (ovarian), 24 h treatment + 48 h culture, average ± SD. The procedure:
as §1, §2

Data set [8] concerns PANC-1. Briefly: In vitro anti-proliferative activity (MTT assay). The data set is classed as cell-based. The settings on record: Homo sapiens, PANC-1 (pancreas), 24 h treatment + 48 h culture, average ± SD. The method, then:
as §1, §2

Data set [9] relates to PC-3. Kind of data set: In vitro anti-proliferative activity (MTT assay). It counts as cell-based. To be noted: Homo sapiens, PC-3 (prostate), 24 h treatment + 48 h culture, average ± SD. The method, then: as §1, §2
For data set [10], the system named is HT-29 human colon carcinoma. Kind of data set: Orthotopic HT-29 human colon tumor model. The data set is classed as in vivo, SCID female mice.
Experimental: Immunodeficient, 6–8 weeks old SCID female mice (21–27 g) were used in this experiment. HT-29 colon carcinoma cells were subcutaneously injected into one side of the intrascapular region, whereby 2 × 10^6 cells were used per animal, suspended in 200 µL of M199 medium, in order to establish the xenografts with primary tumor. After two weeks, the mice with palpable tumors were sacrificed by cervical dislocation, disinfected with iodine and the subcutaneous tumor was aseptically dissected out.
The abdomen of mice was disinfected with iodine and alcohol, a small midline incision (0.5 cm) was then made and the colorectal part of the intestine was exteriorized. Serosa of the site where the tumor pieces should be implanted were removed. Tumor tissue fragments of HT-29 human colon tumor were implanted on the top of the animal intestine, whereby an 8/0 surgical (polypropylene) suture was used to suture it on the wall of the intestine. The intestine was returned to the abdominal cavity and the abdominal wall was closed with 4/0 surgical (polyglycolic acid) sutures. The wound was disinfected with iodine and alcohol again and the animals were kept in a sterile environment.
The treatments started seven days after tumor transplantation by i.p. administration of the free Dau and conjugates which were dissolved in sterile water for injection. Six mice per group were used. One group of mice was treated with free Dau at a dose of 1 mg/kg body weight on day 7, 13 and 20 after tumor transplantation. […] The control group was treated with sterile water. The experiment was terminated on day 30 after tumor transplantation (day 24 of treatment). […] The mice from all groups were sacrificed by cervical dislocation. Their tumors and livers were harvested and weighed.
A short description of data set [11]: Chronic toxicity study on healthy mice. To be noted: healthy BALB/c female mice; i.p.; conjugates 15 mg/kg Dau content x5 (days 1,3,6,8,10); free Dau 1 mg/kg x2 (days 1,8); 14 days; 3 mice per group. It counts as in vivo. The method, then:
Adult female inbred BALB/c mice from a specified pathogen free (SPF) breeding of the National Institute of Oncology (Budapest, Hungary), were used in acute and chronic toxicity studies and in orthotopic 4T1 mice breast tumor model experiment. The mice were kept in a sterile environment in Makrolon® cages at 22–24 °C (40–50% humidity), with a lighting regulation of 12/12 h light/dark. The animals had free access to tap water and were fed with a sterilized standard diet (VRF1, autoclavable, Akronom Kft., Budapest, Hungary) ad libitum.
In order to determine the toxicity of the conjugates, in vivo acute and chronic toxicity studies were performed on healthy animals. In acute toxicity study, adult BALB/c female mice (20–23 g) were treated by a single intraperitoneal (i.p.) injection of conjugate 2, whereby different doses (3.125, 6.25, 12.5, 25 and 50 mg/kg Dau content) were administrated to each groups (three mice per group). In chronic toxicity studies, adult female BALB/c mice (23–26 g) were treated either with GnRH-III conjugates by i.p. administration with a dose of 15 mg/kg Dau content on day 1, 3, 6, 8 and 10, or with free Dau (1 mg/kg) on day 1 and 8. In case of the control group, sterile water was administered. Each group consisted of three mice. The toxicity was evaluated on the basis of life span, behavior and appearance of the mice, as well as the body weight. […]

Data set [12] has as its system 4T1 mice breast carcinoma. Briefly: Orthotopic 4T1 mice breast tumor model. The data set is classed as in vivo, BALB/c female mice.
Experimental: Adult BALB/c female mice (20–25 g) were used in this experiment and kept under the same conditions, as described above. 4T1 mice breast carcinoma cells, maintained as described above, were orthotopically injected into the lower quarter of the right mammary fat pad line of mice, whereby 1 × 10^6 cells were used per animal, suspended in 50 µL M199 medium (Sigma Aldrich). The treatment started seven days after cells inoculation, when the average tumor volume was 38 mm^3, by i.p. administration of the conjugates or free Dau. Four groups with seven animals per group were established and treated with certain doses and schedules. The mice in the control group were treated with sterile water, while mice in free Dau group were treated with a dose of 1 mg/kg, once per week, on days 7, 14 and 21 after cells inoculation. […] Animal weight and tumor volumes were measured initially when the treatment started and at periodic intervals according to the treatment schedule. A digital caliper was used to measure the longest (a) and the shortest diameter (b) of a given tumor. The tumor volume was calculated while using the formula V = ab^2 × π/6, whereby a and b represent the measured parameters (length and width). The termination of the experiment was initiated 28 days after cell inoculation, respectively 22 days after treatment start, since the average volume of the tumors in the control group reached 1800 mm^3. The mice from all groups were sacrificed by cervical dislocation. The anti-tumor effects and the liver toxicity of the conjugates and free Dau were evaluated based on the tumor volume and the liver weight/body weight ratio in each group. Moreover, the anti-proliferative and anti-metastatic activity of the conjugates and free Dau was evaluated in primary tumor and in metastases on the peripheral organs.
The routinely formalin-fixed tumors were dehydrated in a graded series of ethanol, infiltrated with xylene and embedded into paraffin at a temperature not exceeding 60 °C. Two micron thick sections were mounted on Superfrost slides (Thermo Shandon, Runcorn, UK) and then manually deparaffinized. To block endogenous peroxidase activity, slides were treated for 20 min. at r.t. with 3% H2O2 in methanol. The slides were immersed in 6% citrate buffer (pH = 6) and exposed to 98 °C water bath for 40 min. […] After washing, secondary antibody Biotinylated Link (Dako) was applied for 10 min. at r.t. For visualization, supersensitive one step polymer HRP (Biogenex, Fremont, CA, USA) was used with 3-amino-9-ethylcarbazole (AEC) as chromogen. Staining without the primary antibody served as the negative control.
Liver, spleen, lung and kidneys were harvested and fixed in formalin. All of the visible macro-metastatic lesions of the peripheral organs of seven animals from the control and treated groups on a stereo microscope Kruss MSZ5600 (Kruss Optronic, Hamburg, Germany) under 7–45-fold magnification were counted. The percentages of macro-metastatic lesions in the treated groups compared to the control group was calculated.
Proliferation marker stained samples were evaluated on light microscope Olympus BH-2 microscope (Olympus, Tokyo, Japan). […] The proliferation index was calculated as percentage of KI-67 positive cells from all cells in the field of view.
Setting [13] is: SCID mice, i.p., 1 and 2 10 mg/kg Dau content x7, end day 30, free Dau 1 mg/kg x3, end day 23, 6 per group.
The mark [14] stands for this setting: vs control, 1 and 2 10 mg/kg Dau content x6, free Dau 1 mg/kg x3, day 28, 7 animals.

`COc1cccc2c1C(=O)c1c(O)c3c(c(O)c1C2=O)C[C@@](O)(C(C)=O)C[C@@H]3O[C@H]1C[C@H](N)[C@H](O)[C@H](C)O1` [Dau, daunorubicin]: the IC50 was determined as 50.5 ± 38.7 nM in data set [1]; 45.6 ± 33.5 nM in data set [2]; 404 ± 9.4 nM in data set [3]; 288 ± 35.1 nM in [4]; 20.9 ± 2.7 nM in data set [5]; 27.5 ± 9.1 nM in data set [6]. The values for the IC50 in data set [7], in [8] and in [9] were 10.4 ± 1.6 nM, 526 ± 24.7 nM and 32.7 ± 4.7 nM, respectively. Further, the “Decrease of liver/body weight ratio compared to control” value in data set [10] (1 and 2 10 mg/kg Dau content x7, day 30, free Dau 1 mg/kg x3, day 23) is 29.4%; in [12] (1 and 2 10 mg/kg Dau content x6, free Dau 1 mg/kg x3, day 28), 9.8%. Also, the “Animal body weight at the end of experiment compared to the start” value in data set [10] (setting [13]) is on record as “significantly decreased”; in data set [12] (BALB/c mice, i.p., 1 and 2 10 mg/kg Dau content x6, free Dau 1 mg/kg x3, day 28, 7 per group) it was “slightly decreased”. The “Reduction of tumor weight compared to control” value in data set [10] (setting [13]) was 84.3% and 84%. Also, the “Chronic toxicity: body weight, general looking and behavior” value in data set [11] is given as “could not observe a significant change in body weight”. In data set [12] (KI-67, vs control, 1 and 2 10 mg/kg Dau content x6, free Dau 1 mg/kg x3), the “Inhibition of proliferation index of lung metastases” value was 27.8% and 28%. Moreover, the “Decrease of proliferation index in primary tumor compared to control” value in data set [12] (KI-67 positive cells, 400x, 1 and 2 10 mg/kg Dau content x6, free Dau 1 mg/kg x3, day 28) is listed as 19%. In addition, the “Inhibition of number of micro-metastases in the lung compared to control” value in data set [12] (KI-67 stained, per field of view 100x, 1 and 2 10 mg/kg Dau content x6, free Dau 1 mg/kg x3) was 33.7% and 34%. For the same compound, the “Decrease of spleen weight compared to control” value in data set [12] (day 28, 7 per group, Figure S2) turned out to be 27.2%. For the same compound, in [12] (setting [14]), the “Decrease of number of macro-metastases in lung” value stood at 55.4%. In data set [12] (setting [14]), the “Decrease of number of macro-metastases in spleen” value stood at 64.3%.
